Values after ≈ are worked out from the molar mass of the structure shown.
tested on: Escherichia coli ATCC 25922; test: Minimal Inhibitory Concentration (MIC) determination, broth microdilution (CLSI M07-A10); format: cell-based; details: Escherichia coli, ATCC25922, strain Escherichia coli ATCC 25922, 18-24 hours at 35±2° C., lowest concentration for complete growth inhibition (no visible growth), read-out: Escherichia coli growth inhibition MIC
In short: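 Broth microdilution per CLSI M07-A10; compounds in 2-fold serial dilutions; inoculum from 0.5 McFarland suspension diluted 1:200 in broth. Incubated 18-24 h at 35±2° C in ambient air; MIC (μg/mL) taken as lowest concentration giving no visible growth.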

Structure (SMILES)	MIC
O=C1COc2ncc(N3CC4(CCN(CC5Cc6cc7c(nnn7C7CNC7)c(F)c6C5)CC4)OC3=O)nc2N1.O=CO (single isomer, unassigned) [Example 115, 6-[2-oxo-8-[[3-(azetidin-3-yl)-8-fluoro-6,7-dihydro-5H-cyclopenta[f]benzotriazol-6-yl]methyl]-1-oxa-3,8-diazaspiro[4.5]decan-3-yl]-4H-pyrazino[2,3-b][1,4]oxazin-3-one; formic acid]	0.5 µg/mL
O=C(O)C(F)(F)F.O=C1COc2ncc(N3CC4(CCN(CC5Cc6cc7[nH]c([C@@H]8C[C@@H](O)CN8)nc7c(F)c6C5)CC4)OC3=O)nc2N1 (stereo partly drawn) [Example 48, 6-[8-[[8-fluoro-2-[(2S,4R)-4-hydroxypyrrolidin-2-yl]-3,5,6,7-tetrahydrocyclopenta[f]benzimidazol-6-yl]methyl]-2-oxo-1-oxa-3,8-diazaspiro[4.5]decan-3-yl]-4H-pyrazino[2,3-b][1,4]oxazin-3-one; 2,2,2-trifluoroacetic acid]	0.25 µg/mL
NCCn1nnc2cc(F)c3c(c21)CC(CN1CCC2(CC1)CN(c1cnc4c(n1)NC(=O)CO4)C(=O)O2)C3 (stereo not drawn) [Example 84, 6-[8-[[1-(2-aminoethyl)-5-fluoro-7,8-dihydro-6H-cyclopenta[e]benzotriazol-7-yl]methyl]-2-keto-1-oxa-3,8-diazaspiro[4.5]decan-3-yl]-4H-pyrazino[2,3-b][1,4]oxazin-3-one]	0.25 µg/mL (≈ 0.465 µM)
CN[C@H](C)C(=O)NCc1nc2cc3c(c(F)c2o1)CC(CN1CCC2(CC1)CN(c1cnc4c(n1)NC(=O)CO4)C(=O)O2)C3 (stereo partly drawn) [Example 169, (2R)—N-[[8-Fluoro-6-[[2-oxo-3-(3-oxo-4H-pyrazino[2,3-b][1,4]oxazin-6-yl)-1-oxa-3,8-diazaspiro[4.5]decan-8-yl]methyl]-6,7-dihydro-5H-cyclopenta[f][1,3]benzoxazol-2-yl]methyl]-2-(methylamino)propanamide]	1 µg/mL (≈ 1.64 µM)
NCCn1nnc2cc3c(c(F)c21)CC(CN1CCC2(CC1)CN(c1cnc4c(n1)NC(=O)CO4)C(=O)O2)C3 (stereo not drawn) [Example 76, 6-[8-[[1-(2-aminoethyl)-8-fluoro-6,7-dihydro-5H-cyclopenta[f]benzotriazol-6-yl]methyl]-2-oxo-1-oxa-3,8-diazaspiro[4.5]decan-3-yl]-4H-pyrazino[2,3-b][1,4]oxazin-3-one]	0.125 µg/mL (≈ 0.233 µM)

The next lines start with the values.

MIC	Structure (SMILES)
≤ 0.06 µg/mL	C[C@@H](N)c1nc2c(F)c3c(c(F)c2[nH]1)CC(CN1CCC2(CC1)CN(c1cnc4c(n1)NC(=O)CO4)C(=O)O2)C3.O=C(O)C(F)(F)F [Example 25, 6-[8-[[2-[(1R)-1-aminoethyl]-4,8-difluoro-3,5,6,7-tetrahydrocyclopenta[f]benzimidazol-6-yl]methyl]-2-oxo-1-oxa-3,8-diazaspiro[4.5]decan-3-yl]-4H-pyrazino[2,3-b][1,4]oxazin-3-one; 2,2,2-trifluoroacetic acid]
0.5 µg/mL (≈ 0.748 µM)	O=C1COc2ncc(N3CC4(CCN(CC5Cc6c(c(F)c7nn(CCNC(=O)[C@H]8C[C@H](O)CN8)nc7c6F)C5)CC4)OC3=O)nc2N1 [Example 163, (2R,4S)-N-[2-[4,8-difluoro-6-[[2-oxo-3-(3-oxo-4H-pyrazino[2,3-b][1,4]oxazin-6-yl)-1-oxa-3,8-diazaspiro[4.5]decan-8-yl]methyl]-6,7-dihydro-5H-cyclopenta[f]benzotriazol-2-yl]ethyl]-4-hydroxy-pyrrolidine-2-carboxamide]
0.25 µg/mL (≈ 0.44 µM)	CNCCn1cnc2c(F)c3c(c(F)c21)CC(CN1CCC2(CC1)CN(c1cnc4c(n1)NC(=O)CO4)C(=O)O2)C3 (single isomer, unassigned) [Example 126, 6-[2-oxo-8-[[4,8-difluoro-1-[2-(methylamino)ethyl]-6,7-dihydro-5H-cyclopenta[f]benzimidazol-6-yl]methyl]-1-oxa-3,8-diazaspiro[4.5]decan-3-yl]-4H-pyrazino[2,3-b][1,4]oxazin-3-one]
0.5 µg/mL (≈ 0.839 µM)	CNCCNc1cnc2c(F)c3c(c(F)c2n1)CC(CN1CCC2(CC1)CN(c1cnc4c(n1)NC(=O)CO4)C(=O)O2)C3 (stereo not drawn) [Example 40, 6-[8-[[5,9-difluoro-3-[2-(methylamino)ethylamino]-7,8-dihydro-6H-cyclopenta[g]quinoxalin-7-yl]methyl]-2-oxo-1-oxa-3,8-diazaspiro[4.5]decan-3-yl]-4H-pyrazino[2,3-b][1,4]oxazin-3-one]
0.5 µg/mL (≈ 0.878 µM)	CC(C)(O)c1nc2c(F)c3c(c(F)c2[nH]1)CC(CN1CCC2(CC1)CN(c1cnc4c(n1)NC(=O)CO4)C(=O)O2)C3 [Example 4, 6-[8-[[4,8-difluoro-2-(1-hydroxy-1-methyl-ethyl)-3,5,6,7-tetrahydrocyclopenta[f]benzimidazol-6-yl]methyl]-2-oxo-1-oxa-3,8-diazaspiro[4.5]decan-3-yl]-4H-pyrazino[2,3-b][1,4]oxazin-3-one]
0.25 µg/mL (≈ 0.43 µM)	NC1(Cn2nnc3c(F)c4c(c(F)c32)CC(CN2CCC3(CC2)CN(c2cnc5c(n2)NC(=O)CO5)C(=O)O3)C4)CC1 (stereo not drawn) [Example 78, 6-[8-[[1-[(1-aminocyclopropyl)methyl]-4,8-difluoro-6,7-dihydro-5H-cyclopenta[f]benzotriazol-6-yl]methyl]-2-oxo-1-oxa-3,8-diazaspiro[4.5]decan-3-yl]-4H-pyrazino[2,3-b][1,4]oxazin-3-one]
0.25 µg/mL	O=C1COc2ncc(N3CC4(CCN(CC5Cc6c(c(F)c7c(nnn7C7CNC7)c6F)C5)CC4)OC3=O)nc2N1.O=CO (single isomer, unassigned) [Example 120, 6-[8-[[1-(azetidin-3-yl)-4,8-difluoro-6,7-dihydro-5H-cyclopenta[f]benzotriazol-6-yl]methyl]-2-oxo-1-oxa-3,8-diazaspiro[4.5]decan-3-yl]-4H-pyrazino[2,3-b][1,4]oxazin-3-one; formic acid]

same assay, conditions: strain Escherichia coli ATCC 25922, 18-24 hours at 35±2° C., lowest concentration for complete growth inhibition (no visible growth)

Escherichia coli growth inhibition MIC	Structure (SMILES)
0.25 µg/mL	O=C1COc2ncc(N3CC4(CCN(CC5Cc6cc7nc(C8CNC8)oc7c(F)c6C5)CC4)OC3=O)nc2N1 (single isomer, unassigned) [Example 101, 6-[2-oxo-8-[[2-(azetidin-3-yl)-8-fluoro-6,7-dihydro-5H-cyclopenta[f][1,3]benzoxazol-6-yl]methyl]-1-oxa-3,8-diazaspiro[4.5]decan-3-yl]-4H-pyrazino[2,3-b][1,4]oxazin-3-one]
0.125 µg/mL	NCCn1nnc2cc3c(c(F)c21)CC(CN1CCC2(CC1)CN(c1cnc4c(n1)NC(=O)CO4)C(=O)O2)C3 (single isomer, unassigned) [Example 82, 6-[2-oxo-8-[[1-(2-aminoethyl)-8-fluoro-6,7-dihydro-5H-cyclopenta[f]benzotriazol-6-yl]methyl]-1-oxa-3,8-diazaspiro[4.5]decan-3-yl]-4H-pyrazino[2,3-b][1,4]oxazin-3-one]
≤0.06 µg/mL	CNCCn1nc2cc(F)c3c(c2n1)CC(CN1CCC2(CC1)CN(c1cnc4c(n1)NC(=O)CO4)C(=O)O2)C3 (single isomer, unassigned) [Example 86, 6-[8-[[5-fluoro-2-[2-(methylamino)ethyl]-7.8-dihydro-6H-cyclopenta[e]benzotriazol-7-yl]methyl]-2-oxo-1-oxa-3,8-diazaspiro[4.5]decan-3-yl]-4H-pyrazino[2,3-b][1,4]oxazin-3-one]
